Here are results for three compounds from patent US9493795B2 (Algenol Biofuels Inc., priority 2013, dated 2016).

Like-named read-outs stand apart in the source and are kept apart here.

The subject of test [1] is alcohol dehydrogenase from Synechococcus sp., wild type, SEQ ID NO: 5. The experiment in a line: Km determination of native Adh in cell extract (forward and back reaction), Synechococcus sp. SEQ ID NO: 5. In kind it is biochemical. Conditions: pH 7.5, 30° C. The procedure: (§1) Km values of ADH enzymes were determined herein by varying concentrations of one substrate only while keeping all other substrates at saturated levels. The kinetic parameters of the ADH enzymes were determined herein on cellular extracts, and not on pure enzyme. Km was determined herein using a nonlinear regression algorithm for the single-substrate version of the Michaelis-Menten model by using GraphPad Prism Software (version 5). The detailed description of the algorithm is available on the world wide web at “graphpad.com/guides/prism/6/curve-fitting/index.htm?reg_kcat.htm”.
(§2) As used herein, the Km value was measured according to the method described in Example 4. […] For the forward reaction measurement, 0.15 mM NADPH was added, and acetaldehyde was added in differing amounts ranging from […] to 50 mM. The NADPH oxidation was measured at a wavelength of 340 nm.
(§3) In the above aspects, the Km-values represent the Km-values of the native, i.e. non-recombinant, form of the alcohol dehydrogenase enzyme. A Km-value as used herein can be determined from the endogenously expressed alcohol dehydrogenase enzyme of a wild-type cyanobacterial cell. […]
(§4) The reaction was started by addition of varying amounts of acetaldehyde in final concentrations between 1 μM and 50 mM. The NADPH oxidation was spectrophotometrically monitored at a wavelength of 340 nm on a Shimadzu UV2450 spectrophotometer. […]

Test [2] deals with alcohol dehydrogenase from Synechococcus sp., wild type, SEQ ID NO: 6. Kind of test: Km determination of native Adh in cell extract (forward and back reaction), Synechococcus sp. SEQ ID NO: 6. The format is biochemical. The conditions noted are these: pH 7.5, 30° C. The procedure: as §1, §2, §3, §4
The subject of test [3] is alcohol dehydrogenase from Chroococcidiopsis sp., wild type, SEQ ID NO: 9. Kind of test: Km determination of native Adh in cell extract (forward and back reaction), Chroococcidiopsis sp. SEQ ID NO: 9. The format is biochemical. The conditions noted are these: 0.15 mM NADPH, pH 7.5, 30° C., read-out: Km(MeCHO). The procedure:
as §1, §2, §3, §4

In test [4] the test system is alcohol dehydrogenase AdhA from Moorella sp. HUC22-1. The conditions noted are these: Inokuma et al., Arch Microbiol 188 (2007) 37-45, cited from earlier work.
Test [5] has as its system alcohol dehydrogenase from Cyanothece sp., wild type, SEQ ID NO: 3. Kind of test: Km determination of native Adh in cell extract (forward and back reaction), Cyanothece sp. The format is biochemical. The conditions noted are these: pH 7.5, 30° C.
For test [6], the system named is alcohol dehydrogenase from Synechococcus sp., wild type, SEQ ID NO: 4. The experiment in a line: Km determination of native Adh in cell extract (forward and back reaction), Synechococcus sp. SEQ ID NO: 4. The format is biochemical. The conditions noted are these: pH 7.5, 30° C. The procedure:
as §1, §2, §3, §4

A further test has as its system Adh from LPP. Kind of test: Km determination in the screening, Adh from LPP. In kind it is biochemical. The conditions noted are these: identified in the screening. The procedure: as §1, §2, §3, §4
Test [7] has as its system alcohol dehydrogenase from Arthronema africanum, wild type, SEQ ID NO: 8. Kind of test: Km determination of native Adh in cell extract (forward and back reaction), Arthronema africanum. The format is biochemical. The conditions noted are these: 0.15 mM NADPH, pH 7.5, 30° C., read-out: Km(MeCHO).
Test [8] relates to alcohol dehydrogenase from Lyngbya sp., wild type, SEQ ID NO: 1. The experiment in a line: Km determination of native Adh in cell extract (forward and back reaction), Lyngbya sp. In kind it is biochemical. Conditions: pH 7.5, 30° C.
The mark [9] stands for this setting: 0.15 mM NADPH, read-out: Km(MeCHO).
Where [10] appears, read: back reaction, 0.15 mM NADP+, read-out: Km(EtOH).

With `CC=O` [acetaldehyde], the Km (as a rule, the substrate concentration at which the rate is half of its maximum) in [1] (setting [9]) was 783 µM; in [2] (setting [9]) it was 1130 µM; in test [3] it was 3730 µM; in [4] (read-out: Km for acetaldehyde) it was 10000 µM; in test [5] (setting [9]), 75.6 µM; in test [6] (setting [9]) it was 731 µM. For the same compound, the Km amounted to 120 µM with Adh from LPP (read-out: Km for acetaldehyde); 3340 µM in test [7]; 6 µM in [8] (0.15 mM NADPH, cell extract, Example 13, read-out: Km value for acetaldehyde); 5.8 µM in test [8] (0.15 mM NADPH, cell extract, read-out: Km(MeCHO)).
Consider `CCO` [ethanol], for which the Km is 67000 µM in [1] (setting [10]); 29300 µM in [2] (setting [10]); 40000 µM in [4] (read-out: Km for ethanol); 9330 µM in test [5] (setting [10]); 32400 µM in test [6] (setting [10]); 3600 µM in the test with Adh from LPP (read-out: Km for ethanol). Further, the Km in test [8] (back reaction, 0.15 mM NADP+, cell extract, read-out: Km(EtOH)) came to 830 µM.
Take `CCC=O` [propanal]: the Km in test [8] (as Example 4: 0.15 mM NADPH, FIG. 15A, read-out: Km for propanal) turned out to be 5.3 µM.
